Results reported in patent publication US10889569B2, “Condensed ring group azacyclobutyl triazole derivative, preparation method therefor and use thereof in medicine” (Jiangsu Hengrui Medicine Co., Ltd., priority 2016, dated 2021).

Legend:
Format in all cases: cell-based
[1] = target: human V1bR (Homo sapiens, UniProt P47901); assay: Inhibition activity on human V1bR (Fluo-4 calcium assay, HEK293/human V1bR pool cells); settings: vasopressin 3 nM
Protocol: The inhibition effect of the compounds of the present invention on the activity of human V1bR protein expressed in HEK293/human V1bR cells was determined by the following experimental method:
The pcDNA3.1-V1bR plasmid was transferred into HEK293 cells with the Lipofectamine® 3000 transfection reagent; G418 was added on the next day, and the HEK293/human V1bR pool cell lines were obtained.
(§1) HEK293/human V1bR pool cells were inoculated in a 96-well plate with an inoculation density of 25,000 cells/well one day in advance. On the next day, a loading buffer containing Fluo-4 dye was formulated using the reagents in the Fluo-4 NW calcium assay kit, and the culture medium was then removed; 100 μl of the loading buffer containing Fluo-4 dye were added to each well, and the plate was incubated at 37° C. for 30 minutes. After that, the plate was moved to room temperature and equilibrated for 10 minutes. The compounds were formulated into 10^6, 10^5, 10^4, 10^3, 10^2 and 10^1 nM. 1 μl of the compounds in each concentration was added to each well, and the plate was incubated at room temperature for 10 minutes. 50 μl of vasopressin polypeptide (3 nM) were automatically added by the machine, and the values were immediately detected at 494/516 nM by the flexstation 3 microplate reader. IC50 values of the compounds were calculated by Graphpad prism software using fluorescence signals corresponding to different concentrations.
The inhibition activity of the compounds of the present invention on human V1bR was determined by the above test, and the obtained IC50 values are shown in Table 3.

[2] = target: human OTR (Homo sapiens, UniProt P30559); assay: Inhibition activity on human OTR (Fluo-4 calcium assay, HEK293/human OTR stably transfected cells); settings: oxytocin 3 nM
Protocol: The inhibition effect of the compounds of the present invention on the activity of human OTR protein expressed in HEK293/human OTR stably transfected cells was determined by the following experimental method:
The pcDNA3.1-hOTR plasmid was transferred into HEK293 cells with the Lipofectamine® 3000 transfection reagent; G418 was added on the next day to screen, and monoclonal cell lines were selected.
as §1, with “OTR stably transfected” for “V1bR pool”, “at” for “into”, “oxytocin” for “vasopressin”
The inhibition activity of the compounds of the present invention on human OTR was determined by the above test, and the obtained IC50 values are shown in Table 1.

[3] = target: human V1aR (Homo sapiens (Human), UniProt P37288); assay: Inhibition activity on human V1aR (Fluo-4 calcium assay, HEK293/human V1aR stably transfected cells); settings: vasopressin 3 nM
Protocol: The inhibition effect of the compounds of the present invention on the activity of human V1 aR protein expressed in HEK293/human V1aR stably transfected cells was determined by the following experimental method:
The pcDNA3.1-V1aR plasmid was transferred into HEK293 cells with the Lipofectamine® 3000 transfection reagent; G418 was added on the next day to screen, and monoclonal cell lines were selected.
as §1, with “V1aR stably transfected” for “V1bR pool”, “at” for “into”
The inhibition activity of the compounds of the present invention on human V1aR was determined by the above test, and the obtained IC50 values are shown in Table 2.

[4] = target: human V2R (Homo sapiens (Human), UniProt P30518); assay: Inhibition activity on human V2R (cAMP HTRF assay, HEK293/human V2R pool cells); settings: vasopressin
Protocol: The inhibition effect of the compounds of the present invention on the activity of human V2R protein expressed in HEK293/human V2R cells was determined by the following experimental method:
The pcDNA3.1-V2R plasmid was transferred into HEK293 cells with the Lipofectamine® 3000 transfection reagent; G418 was added on the next day, and the HEK293/human V2R pool cell lines were obtained.
HEK293/human V2R pool cells were dissociated with the cell dissociation solution (enzyme-free), thereby dissociating the cells from the cell culture dish into individual cells. Then the cell solution was blown well, and centrifuged to remove the supernatant. The cells were resuspended in the test buffer 1 (1×HBSS+20 mM HEPES+0.1% BSA) and counted. The cell density was adjusted to 1250 cells/5 μl, i.e., 2.5*10^5/ml.
The compounds were formulated into a series of concentrations of 20 mM, 6.67 mM, 2.22 mM, 0.74 mM, 0.25 mM, 0.08 mM, 27.4 μM, 9.14 μM, 3.05 μM, 1.02 μM, 0.34 μM and 0 μM (DMSO) with pure DMSO. The compounds were then diluted into a 4-fold working concentration solution with the test buffer 2 (test buffer 1+1 mM IBMX).
Agonist: 460 μM vasopressin was used as the mother liquor, which was formulated at 2 μM with DMSO, and then diluted to 0.5 nM with the test buffer 2.
Standards: The first point was 20 μl of a stock solution (2848 nM), which was diluted successively to a total of eleven concentrations in a 4-fold concentration gradient with the test buffer 1 from the second point.
1. The well-mixed cells were added to a 384-well plate (5 μl/well) without changing the tip.
2. The test compounds and positive compound formulated were added (2.5 μl/well), and the tips were changed.
3. The plate was centrifuged at 1000 rpm for 1 min, shaken for 30 sec to mix well, and incubated at room temperature for 30 min.
4. The standard curve wells were added with the test buffer 2 (5 μl/well).
5. The formulated agonist was added (2.5 μl/well), and the tips were changed; the plate was centrifuged at 1000 rpm for 1 min, shaken for 30 sec to mix well, and incubated at room temperature for 30 min.
6. cAMP-d2 (a component in the cAMP dynamic 2 kit) and Anti-cAMP-Eu-Cryptate (a component in the cAMP dynamic 2 kit) were formulated in the dark, which were then mixed well with cAMP lysate (a component in the cAMP dynamic 2 kit) in a ratio of 1:4. Each well was added with the formulated cAMP-d2 solution (5 μl/well), followed by addition of Anti-cAMP-Eu-Cryptate (5 μl/well). The plate was shaken for 30 sec to mix well, and incubated in the dark at room temperature for 1 h.
The HTRF Signals were Read by the PheraStar Multi-Function Microplate Reader.
The data in this test was processed using the data processing software Graphpad Prism.
The inhibition activity of the compounds of the present invention on human V2R was determined by the above test, and the IC50 values obtained are shown in Table 4.

Sequence of human V1aR (P37288 whole entry): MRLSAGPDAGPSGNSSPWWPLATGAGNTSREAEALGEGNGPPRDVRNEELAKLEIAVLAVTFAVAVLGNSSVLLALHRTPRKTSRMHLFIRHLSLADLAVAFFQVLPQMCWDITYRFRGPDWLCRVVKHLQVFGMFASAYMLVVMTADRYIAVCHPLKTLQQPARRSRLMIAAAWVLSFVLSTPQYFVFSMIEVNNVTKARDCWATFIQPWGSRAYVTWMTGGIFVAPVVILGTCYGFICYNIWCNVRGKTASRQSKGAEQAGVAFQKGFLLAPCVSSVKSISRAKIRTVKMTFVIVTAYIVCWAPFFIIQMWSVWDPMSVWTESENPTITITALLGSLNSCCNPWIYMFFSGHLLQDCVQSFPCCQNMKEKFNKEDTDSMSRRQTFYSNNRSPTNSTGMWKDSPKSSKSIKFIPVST
Sequence of human V2R (P30518 whole entry): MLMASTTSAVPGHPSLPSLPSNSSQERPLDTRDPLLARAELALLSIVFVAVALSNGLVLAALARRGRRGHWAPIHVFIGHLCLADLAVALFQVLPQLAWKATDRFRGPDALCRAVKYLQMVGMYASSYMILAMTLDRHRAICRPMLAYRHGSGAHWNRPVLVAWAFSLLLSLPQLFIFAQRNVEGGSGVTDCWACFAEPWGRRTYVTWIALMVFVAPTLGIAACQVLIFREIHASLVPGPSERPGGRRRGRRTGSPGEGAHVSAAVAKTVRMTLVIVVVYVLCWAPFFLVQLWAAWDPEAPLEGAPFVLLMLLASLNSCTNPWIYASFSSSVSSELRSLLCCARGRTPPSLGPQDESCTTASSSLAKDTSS

| Compound | IC50 [1] | IC50 [2] | IC50 [3] | IC50 [4] |
| --- | --- | --- | --- | --- |
| COCc1nnc(N2CC(n3cc(Cl)c4cc(F)ccc43)C2)n1-c1ccc(OC)nc1 [Example 10, 3-Chloro-5-fluoro-1-(1-(5-(methoxymethyl)-4-(6-methoxypyridin-3-yl)-4H-1,2,4-triazol-3-yl)azetidin-3-yl)-1H-indole] | 12.4 µM | 0.091 µM | 5.7 µM | 20.7 µM |
| COCc1nnc(N2CC(c3cn(C)c4cc(F)ccc34)C2)n1-c1ccc(OC)nc1 [Example 14, 6-Fluoro-3-(1-(5-(methoxymethyl)-4-(6-methoxypyridin-3-yl)-4H-1,2,4-triazol-3-yl)azetidin-3-yl)-1-methyl-1H-indole] | 25.8 µM | 0.13 µM | 10.9 µM | 11.8 µM |
| COCc1nnc(N2CC(C3CCOc4cc(F)ccc43)C2)n1-c1ccc(OC)nc1 (stereo not shown) [Example 21, 5-(3-(3-(7-Fluorobenzodihydropyran-4-yl)azetidin-1-yl)-5-(methoxymethyl)-4H-1,2,4-triazol-4-yl)-2-methoxypyridine] | 38.8 µM | 0.025 µM | 2.7 µM | 17.3 µM |
| COCc1nnc(N2CC(N3CCOc4cc(F)ccc43)C2)n1-c1ccc(OC)nc1 [Example 24, 7-Fluoro-4-(1-(5-(methoxymethyl)-4-(6-methoxypyridin-3-yl)-4H-1,2,4-triazol-3-yl)azetidin-3-yl)-3,4-dihydro-2H-benzo[b][1,4]oxazine] | 44.1 µM | 0.1 µM | 10.7 µM | 67.2 µM |
| COc1ccc(-n2c(C)nnc2N2CC(N3CCCc4cc(F)ccc43)C2)cn1 [Example 29, 6-Fluoro-1-(1-(4-(6-methoxypyridin-3-yl)-5-methyl-4H-1,2,4-triazol-3-yl)azetidin-3-yl)-1,2,3,4-tetrahydroquinoline] | 95.1 µM | 0.064 µM | 6.2 µM | 12.1 µM |
| COCc1nnc(N2CC(N3CCCc4cc(F)ccc43)C2)n1-c1ccc(OC)nc1 [Example 30, 6-Fluoro-1-(1-(5-(methoxymethyl)-4-(6-methoxypyridin-3-yl)-4H-1,2,4-triazol-3-yl)azetidin-3-yl)-1,2,3,4-tetrahydroquinoline] | 20.7 µM | 0.004 µM | 8.5 µM | 6.7 µM |
| CCOCc1nnc(N2CC(N3CCOc4cc(F)ccc43)C2)n1-c1ccc(OC)nc1 [Example 31, 4-(1-(5-(Ethoxymethyl)-4-(6-methoxypyridin-3-yl)-4H-1,2,4-triazol-3-yl)azetidin-3-yl)-7-fluoro-3,4-dihydro-2H-benzo[b][1,4]oxazine] | 54.5 µM | 0.079 µM | 3.5 µM | 5.8 µM |
